# Reference: patent US9034624B2, “Process for the synthesis of conjugates of glycosaminoglycanes (GAG) with biologically active molecules, polymeric conjugates and relative uses thereof” (FIDIA FARMACEUTICI S.P.A., priority 2009, dated 2015)
# B1: RNAsi A: free enzyme RNAse A (protein, UniProt P61823 27-150, looked up)
# Ribonuclease pancreatic: KETAAAKFERQHMDSSTSAASSSNYCNQMMKSRNLTKDRCKPVNTFVHESLADVQAVCSQKNVACKNGQTNCYQSYSTMSITDCRETGSSKYPNCAYKTTQANKHIIVACEGNPYVPVHFDASV
# B2: HA-Ac-RNAsi A: hyaluronic acid aldehyde derivative conjugated to RNAse A at the N-terminal end (conjugate, UniProt P61823 27-150, looked up)
# Ribonuclease pancreatic: B1 Ribonuclease pancreatic
# modifications: hyaluronic acid aldehyde conjugate
# notes: hyaluronic acid aldehyde derivative conjugated to RNAse A at the N-terminal end
# Key:
# [1] = cited from earlier work
# [2] = glucose levels in blood, streptozocin-induced diabetes type I model; format: in vivo, rat; conditions: for effect on glucose level in the blood: diabetic rats (streptozocin 70 mg/Kg), conjugate subcutaneous
# Procedure: 3.00 g of the aldehyde derivative of HA (activated intermediate) according to Example 1 are dissolved at a concentration of 10 mg/ml in an acid environment by the presence of phosphoric acid at a temperature of 60° C. for 2 hours. 4×10^−5 moles of insulin, 4×10^−1 moles of cyanoborohydride are added to the hydrolyzed product previously cooled and the pH is regulated to 6.0. After 24 h of reaction, the adduct is purified and analyzed via dimensional exclusion chromatography; the relative chromatogram is visible in FIG. 8. The activity in vivo of the conjugate is evaluated on a model of induced diabetes type I in a rat after administration of streptozocin at a dose of 70 mg/Kg.
# The HA-Insulin conjugate is administered subcutaneously at a dose of 5 or 20 μg of equivalent insulin. The biological activity of the conjugate is tested through the determination of the glucose levels in the blood of animals, measured by means of commercial kits (OneTouch® II, LifeScan, Johnson & Johnson), The control consists of healthy rats (group 1) and rats with induced diabetes treated with insulin (group 2). The results are illustrated in FIG. 9.
# [3] = system: cyclic 2′,3′-cytidine monophosphate (2′,3′-CMC); experiment: residual enzymatic activity of RNAse A, free or bound to HA (absorption increase at 287 nm); format: biochemical; conditions: hydrolysis of 2′,3′-CMC, absorption at 287 nm
# Procedure: 1.00 g of the aldehyde derivative of HA according to Example 1 are dissolved at a concentration of 8 mg/ml in an acid environment by the presence of phosphoric acid at a temperature of 50° C. for 2 hours. The pH is regulated to 6.0 and 2×10^−5 moles of RNAse A and 2×10^−1 moles of cyanoborohydride are added to the hydrolyzed product previously cooled. At this pH the reaction takes place specifically at the N-terminal end of the protein. After 24 h of reaction, the adduct is purified by dialysis against water and then freeze-dried. The corresponding GPC chromatogram registered under the conditions described in Example 14 can be found in FIG. 7. This type of conjugate is optimally suitable for measuring in vitro the residual activity of the enzyme, using a specific kit based on the evaluation of the absorption increase at 287 nm with time, determined by hydrolysis of the specific synthetic substrate cyclic 2′,3′-cytidine monophosphate (2′,3′-CMC).
# A comparison of the residual activity of the enzyme, free or bound to HA, produces the following results: […]
molecule,measurement,setting,value
Calcitonin,absorption half-life,[1],10 to 15 min
same,elimination half-life,[1],50 to 80 min
HA-Insulin: hyaluronic acid aldehyde derivative conjugated to insulin,effect on glucose level in the blood,[2]; 5 or 20 μg equivalent insulin,"exerted more slowly, but has a considerably prolonged duration with time"
same,effectiveness relative to the conjugated drug (insulin),"[2]; diabetic rats, subcutaneous",doubling the effectiveness
same,time span to bring glucose to a lower level than the group treated with insulin alone,"[2]; diabetic rats, subcutaneous, 5 or 20 μg equivalent insulin",≤ 5 h
same,duration for which the glucose lowering effect is maintained,"[2]; diabetic rats, subcutaneous, duration of the experiment",24 h
"insulin: free insulin, control treatment of diabetic rats [reference compound]",effect on glucose level in the blood,[2]; 5 or 20 μg equivalent insulin,"sudden decrease in the glucose level in the blood, which however returns to high values in a relatively rapid time scale"
B1,% Relative enzymatic activity,[3],100%
B2,% Relative enzymatic activity,[3],95.23%
